According to patent publication US11370798B2 (Vertex Pharmaceuticals Incorporated, priority 2012, dated 2022):
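Also: Test-compound concentration that lowers the Cisplatin IC50 by a set fold.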

What follows are compounds tested on HCT116 colorectal cancer cells (assay: Cisplatin sensitization assay (96 h cell viability MTS)). Conditions: compound and Cisplatin added simultaneously, Cisplatin sensitization value.
Type: cell-based
In short: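 Viability read by MTS (1 h at 37° C) after 96 h co-exposure at 37° C, 5% CO2. Test compound and cisplatin were dosed simultaneously in a full concentration matrix, each 2-fold serially diluted from 10 μM final; sensitization values binned in μM.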
`N#CCc1cnc2c(C(=O)Nc3cnccc3OC3CCCNC3)c(N)nn2c1` (racemic) [I-O-2, (R,S)-2-amino-6-(cyanomethyl)-N-(4-(piperidin-3-yloxy)pyridin-3-yl)pyrazolo[1,5-a]pyrimidine-3-carboxamide] was tested, and the “Cisplatin Sensitization Assay” value was “++ (Cisplatin sensitization value>0.02 μM but <0.2 μM)”.
`COc1ccncc1NC(=O)c1c(N)nn2cc(Cl)cnc12` [I-O-57, 2-amino-6-chloro-N-(4-methoxypyridin-3-yl)pyrazolo[1,5-a]pyrimidine-3-carboxamide] was tested, and the “Cisplatin Sensitization Assay” value was “+++ (Cisplatin sensitization value of <0.02 μM)”.
`COc1ccncc1NC(=O)c1c(N)nn2cc(F)cnc12` [I-O-4, 2-amino-6-fluoro-N-(4-methoxypyridin-3-yl)pyrazolo[1,5-a]pyrimidine-3-carboxamide] was tested, and the “Cisplatin Sensitization Assay” value was “++ (Cisplatin sensitization value>0.02 μM but <0.2 μM)”.
For `Cn1ccc2c(NC(=O)c3c(N)nn4cc(F)cnc34)cncc21` [I-C-74, 2-amino-6-fluoro-N-(1-methyl-1H-pyrrolo[2,3-c]pyridin-4-yl)pyrazolo[1,5-a]pyrimidine-3-carboxamide], the “Cisplatin Sensitization Assay” value was “+ (Cisplatin sensitization value>0.2 μM but <5 μM)”.
For `CN1CCOC2(CCN(c3c(F)cncc3NC(=O)c3c(N)nn4cc(F)cnc34)CC2)C1` [I-N-272, 2-amino-6-fluoro-N-(5-fluoro-4-(4-methyl-1-oxa-4,9-diazaspiro[5.5]undecan-9-yl)pyridin-3-yl)pyrazolo[1,5-a]pyrimidine-3-carboxamide], the “Cisplatin Sensitization Assay” value was “+++ (Cisplatin sensitization value of <0.02 μM)”.
With `Nc1nn2cc(Cl)cnc2c1C(=O)Nc1cnccc1N1CCC(N2CC(F)(F)C2)CC1` [I-N-108, 2-amino-6-chloro-N-(4-(4-(3,3-difluoroazetidin-1-yl)piperidin-1-yl)pyridin-3-yl)pyrazolo[1,5-a]pyrimidine-3-carboxamide] the “Cisplatin Sensitization Assay” value was “+++ (Cisplatin sensitization value of <0.02 μM)”.
For `Nc1nn2cc(F)cnc2c1C(=O)Nc1cnccc1N1CCCCC1` [I-N-152, 2-amino-6-fluoro-N-(4-(piperidin-1-yl)pyridin-3-yl)pyrazolo[1,5-a]pyrimidine-3-carboxamide], the “Cisplatin Sensitization Assay” value was “+++ (Cisplatin sensitization value of <0.02 μM)”.
For `CN1CCC(NC(=O)C2CCN(c3c(F)cncc3NC(=O)c3c(N)nn4cc(F)cnc34)CC2)C1` (centres unmarked) [I-G-24, 2-amino-6-fluoro-N-(5-fluoro-4-(4-((1-methylpyrrolidin-3-yl)carbamoyl)piperidin-1-yl)pyridin-3-yl)pyrazolo[1,5-a]pyrimidine-3-carboxamide], the “Cisplatin Sensitization Assay” value was “+++ (Cisplatin sensitization value of <0.02 μM)”.
In the case of `C[N+]1([O-])CCc2c(cncc2NC(=O)c2c(N)nn3cc(F)cnc23)C1` (centres unmarked) [I-C-9, 5-(2-amino-6-fluoropyrazolo[1,5-a]pyrimidine-3-carboxamido)-2-methyl-1,2,3,4-tetrahydro-2,7-naphthyridine 2-oxide], the “Cisplatin Sensitization Assay” value is reported as “+ (Cisplatin sensitization value>0.2 μM but <5 μM)”.
`Nc1nn2cc(F)cnc2c1C(=O)Nc1cnccc1N1CCC(C(=O)N2CCOCC2)CC1` [I-G-85, 2-amino-6-fluoro-N-(4-(4-(morpholine-4-carbonyl)piperidin-1-yl)pyridin-3-yl)pyrazolo[1,5-a]pyrimidine-3-carboxamide] was tested, and the “Cisplatin Sensitization Assay” value was “+++ (Cisplatin sensitization value of <0.02 μM)”.
In the case of `Nc1nn2cc(F)cnc2c1C(=O)Nc1cncc(F)c1N1CCC(C(=O)N2CC(N3CCCCC3)C2)CC1` [I-G-57, 2-amino-6-fluoro-N-(5-fluoro-4-(4-(3-(piperidin-1-yl)azetidine-1-carbonyl)piperidin-1-yl)pyridin-3-yl)pyrazolo[1,5-a]pyrimidine-3-carboxamide], the “Cisplatin Sensitization Assay” value is reported as “+++ (Cisplatin sensitization value of <0.02 μM)”.
`CN1CCN(c2ccncc2NC(=O)c2c(N)nn3cc(Cl)cnc23)CC1` [I-N-59, 2-amino-6-chloro-N-(4-(4-methylpiperazin-1-yl)pyridin-3-yl)pyrazolo[1,5-a]pyrimidine-3-carboxamide] was tested, and the “Cisplatin Sensitization Assay” value was “++ (Cisplatin sensitization value>0.02 μM but <0.2 μM)”.
With `Nc1nn2cc(Cl)cnc2c1C(=O)Nc1cnccc1OC1CCOCC1` [I-O-61, 2-amino-6-chloro-N-(4-((tetrahydro-2H-pyran-4-yl)oxy)pyridin-3-yl)pyrazolo[1,5-a]pyrimidine-3-carboxamide] the “Cisplatin Sensitization Assay” value was “+++ (Cisplatin sensitization value of <0.02 μM)”.
`CN1CCN(c2ccncc2NC(=O)c2c(N)nn3cc(F)cnc23)CC1=O` [I-N-209, 2-amino-6-fluoro-N-(4-(4-methyl-3-oxopiperazin-1-yl)pyridin-3-yl)pyrazolo[1,5-a]pyrimidine-3-carboxamide] was tested, and the “Cisplatin Sensitization Assay” value was “+++ (Cisplatin sensitization value of <0.02 μM)”.
In the case of `CN(C)[C@@H]1CCN(C(=O)C2CCN(c3c(F)cncc3NC(=O)c3c(N)nn4cc(F)cnc34)CC2)C1` [I-G-11, (R)-2-amino-N-(4-(4-(3-(dimethylamino)pyrrolidine-1-carbonyl)piperidin-1-yl)-5-fluoropyridin-3-yl)-6-fluoropyrazolo[1,5-a]pyrimidine-3-carboxamide], the “Cisplatin Sensitization Assay” value is reported as “+++ (Cisplatin sensitization value of <0.02 μM)”.
In the case of `Cn1ncnc1-c1ccncc1NC(=O)c1c(N)nn2cc(F)cnc12` [I-C-65, 2-amino-6-fluoro-N-(4-(1-methyl-1H-1,2,4-triazol-5-yl)pyridin-3-yl)pyrazolo[1,5-a]pyrimidine-3-carboxamide], the “Cisplatin Sensitization Assay” value is reported as “++ (Cisplatin sensitization value>0.02 μM but <0.2 μM)”.
`Cc1ncn(-c2ccncc2NC(=O)c2c(N)nn3cc(F)cnc23)n1` [I-N-161, 2-amino-6-fluoro-N-(4-(3-methyl-1H-1,2,4-triazol-1-yl)pyridin-3-yl)pyrazolo[1,5-a]pyrimidine-3-carboxamide] was tested, and the “Cisplatin Sensitization Assay” value was “+ (Cisplatin sensitization value>0.2 μM but <5 μM)”.
In the case of `CC1(C)CCCN1c1ccncc1NC(=O)c1c(N)nn2cc(F)cnc12` [I-N-220, 2-amino-N-(4-(2,2-dimethylpyrrolidin-1-yl)pyridin-3-yl)-6-fluoropyrazolo[1,5-a]pyrimidine-3-carboxamide], the “Cisplatin Sensitization Assay” value is reported as “++ (Cisplatin sensitization value>0.02 μM but <0.2 μM)”.
With `Nc1nn2cc(F)cnc2c1C(=O)Nc1cnccc1N1CCN(CC(F)(F)F)CC1` [I-N-20, 2-amino-6-fluoro-N-(4-(4-(2,2,2-trifluoroethyl)piperazin-1-yl)pyridin-3-yl)pyrazolo[1,5-a]pyrimidine-3-carboxamide] the “Cisplatin Sensitization Assay” value was “+++ (Cisplatin sensitization value of <0.02 μM)”.
For `CN(C)C(=O)C1CCN(c2ccncc2NC(=O)c2c(N)nn3cc(F)cnc23)CC1` [I-G-2, 2-amino-N-(4-(4-(dimethylcarbamoyl)piperidin-1-yl)pyridin-3-yl)-6-fluoropyrazolo[1,5-a]pyrimidine-3-carboxamide], the “Cisplatin Sensitization Assay” value was “+++ (Cisplatin sensitization value of <0.02 μM)”.
In the case of `Nc1nn2cc(F)cnc2c1C(=O)Nc1cncc(F)c1N1CCC(C(=O)N2CCC2)CC1` [I-G-8, 2-amino-N-(4-(4-(azetidine-1-carbonyl)piperidin-1-yl)-5-fluoropyridin-3-yl)-6-fluoropyrazolo[1,5-a]pyrimidine-3-carboxamide], the “Cisplatin Sensitization Assay” value is reported as “+++ (Cisplatin sensitization value of <0.02 μM)”.
For `CS(=O)(=O)N1CCN(c2ccncc2NC(=O)c2c(N)nn3cc(F)cnc23)CC1` [I-N-178, 2-amino-6-fluoro-N-(4-(4-(methylsulfonyl)piperazin-1-yl)pyridin-3-yl)pyrazolo[1,5-a]pyrimidine-3-carboxamide], the “Cisplatin Sensitization Assay” value was “+++ (Cisplatin sensitization value of <0.02 μM)”.
With `CNCCc1cnn(-c2ccncc2NC(=O)c2c(N)nn3cc(F)cnc23)c1` [I-N-8, 2-amino-6-fluoro-N-(4-(4-(2-(methylamino)ethyl)-1H-pyrazol-1-yl)pyridin-3-yl)pyrazolo[1,5-a]pyrimidine-3-carboxamide] the “Cisplatin Sensitization Assay” value was “+ (Cisplatin sensitization value>0.2 μM but <5 μM)”.
`Nc1nn2cc(F)cnc2c1C(=O)Nc1cncc2c1CCNC2` [I-C-7, 2-amino-6-fluoro-N-(5,6,7,8-tetrahydro-2,7-naphthyridin-4-yl)pyrazolo[1,5-a]pyrimidine-3-carboxamide] was tested, and the “Cisplatin Sensitization Assay” value was “++ (Cisplatin sensitization value>0.02 μM but <0.2 μM)”.
For `CN1CCN(C(=O)C2CCN(c3c(Cl)cncc3NC(=O)c3c(N)nn4cc(F)cnc34)CC2)CC1` [I-G-3, 2-amino-N-(5-chloro-4-(4-(4-methylpiperazine-1-carbonyl)piperidin-1-yl)pyridin-3-yl)-6-fluoropyrazolo[1,5-a]pyrimidine-3-carboxamide], the “Cisplatin Sensitization Assay” value was “+++ (Cisplatin sensitization value of <0.02 μM)”.
`CS(=O)(=O)C1CCN(c2c(Cl)cncc2NC(=O)c2c(N)nn3cc(F)cnc23)C1` (centres unmarked) [I-N-287, 2-amino-N-(5-chloro-4-(3-(methylsulfonyl)pyrrolidin-1-yl)pyridin-3-yl)-6-fluoropyrazolo[1,5-a]pyrimidine-3-carboxamide] was tested, and the “Cisplatin Sensitization Assay” value was “+++ (Cisplatin sensitization value of <0.02 μM)”.
`Cc1nncn1-c1ccncc1NC(=O)c1c(N)nn2cc(F)cnc12` [I-N-263, 2-amino-6-fluoro-N-(4-(3-methyl-4H-1,2,4-triazol-4-yl)pyridin-3-yl)pyrazolo[1,5-a]pyrimidine-3-carboxamide] was tested, and the “Cisplatin Sensitization Assay” value was “+ (Cisplatin sensitization value>0.2 μM but <5 μM)”.
For `N#CCc1cnc2c(C(=O)Nc3cnccc3OC3CNC3)c(N)nn2c1` [I-O-82, 2-amino-N-(4-(azetidin-3-yloxy)pyridin-3-yl)-6-(cyanomethyl)pyrazolo[1,5-a]pyrimidine-3-carboxamide], the “Cisplatin Sensitization Assay” value was “++ (Cisplatin sensitization value>0.02 μM but <0.2 μM)”.
With `CN1CCC(S(=O)(=O)N2CCN(c3c(F)cncc3NC(=O)c3c(N)nn4cc(F)cnc34)CC2)CC1` [I-N-175, 2-amino-6-fluoro-N-(5-fluoro-4-(4-((1-methylpiperidin-4-yl)sulfonyl)piperazin-1-yl)pyridin-3-yl)pyrazolo[1,5-a]pyrimidine-3-carboxamide] the “Cisplatin Sensitization Assay” value was “+++ (Cisplatin sensitization value of <0.02 μM)”.
